Laboratory results from paper PMC6009872, “Carbonic anhydrases from Trypanosoma cruzi and Leishmania donovani chagasi are inhibited by benzoxaboroles” (Journal of Enzyme Inhibition and Medicinal Chemistry, 2017).

Columns and labels:
TcCA = target: T1, TcCA (Trypanosoma cruzi, UniProt Q4CVY4); experiment: stopped-flow CO2 hydrase assay; format: biochemical; conditions: 20 mM Hepes pH 7.5, 20 mM Na2SO4, CO2 1.7-17 mM, 15 min preincubation at room temperature
T1 construct: gene Tc00.1047053509597.20
T1 sequence (Q4CVY4 39-638): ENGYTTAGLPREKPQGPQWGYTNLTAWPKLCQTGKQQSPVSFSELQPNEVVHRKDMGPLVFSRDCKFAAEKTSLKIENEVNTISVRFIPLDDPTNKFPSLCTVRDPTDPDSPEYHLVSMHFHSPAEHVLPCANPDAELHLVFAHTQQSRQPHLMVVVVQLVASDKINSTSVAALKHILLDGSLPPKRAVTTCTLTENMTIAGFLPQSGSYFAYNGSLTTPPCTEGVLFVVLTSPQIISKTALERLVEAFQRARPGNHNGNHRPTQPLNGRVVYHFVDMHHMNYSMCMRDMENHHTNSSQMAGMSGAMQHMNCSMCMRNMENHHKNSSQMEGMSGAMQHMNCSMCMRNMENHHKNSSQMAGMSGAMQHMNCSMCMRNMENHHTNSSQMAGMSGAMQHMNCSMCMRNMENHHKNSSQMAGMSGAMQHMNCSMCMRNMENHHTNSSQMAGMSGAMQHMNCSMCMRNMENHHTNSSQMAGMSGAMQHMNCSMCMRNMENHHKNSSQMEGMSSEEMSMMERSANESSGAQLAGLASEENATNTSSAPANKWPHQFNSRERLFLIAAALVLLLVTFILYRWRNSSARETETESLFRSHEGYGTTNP

LdcCA = target: T2, LdcCA (Leishmania infantum, UniProt A4HSV2); experiment: stopped-flow CO2 hydrase assay; format: biochemical; conditions: 20 mM TRIS pH 8.3, 20 mM Na2SO4, CO2 1.7-17 mM, 15 min preincubation at room temperature
T2 construct: gene LINJ_06_0630; organism given as Leishmania donovani chagasi
T2 sequence (A4HSV2 1-306): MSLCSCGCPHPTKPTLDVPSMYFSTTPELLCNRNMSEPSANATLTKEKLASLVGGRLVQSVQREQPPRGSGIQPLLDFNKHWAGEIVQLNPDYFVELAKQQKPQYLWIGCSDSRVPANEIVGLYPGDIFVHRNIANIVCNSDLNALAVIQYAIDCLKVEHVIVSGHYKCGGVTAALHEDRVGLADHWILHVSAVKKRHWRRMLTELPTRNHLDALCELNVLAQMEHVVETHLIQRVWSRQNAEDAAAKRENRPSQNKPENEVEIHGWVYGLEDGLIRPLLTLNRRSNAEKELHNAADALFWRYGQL

SMILES | Ki (TcCA) [µM] | Ki (LdcCA) [µM]
O=C(Nc1ccc2c(c1)B(O)OC2)Nc1c(Cl)cc(Cl)cc1Cl [compound 11, 11] | 69.5 | 3.85
OB1OCc2ccc(NC(=S)Nc3ccc(C(F)(F)F)cc3)cc21 [compound 22, 22] | 16.6 | 0.85
Cc1ccc(NC(=S)Nc2ccc3c(c2)B(O)OC3)cc1 [compound 15, 15] | 32.5 | 0.67
COc1ccc(C)cc1NC(=O)Nc1ccc2c(c1)B(O)OC2 [compound 12, 12] | 38.6 | 0.67
OB1OCc2ccc(NC(=S)NCc3ccccc3)cc21 [compound 19, 19] | 59.6 | 4.37
OB1OCc2ccc(NC(=S)Nc3ccc(F)cc3)cc21 [compound 20, 20] | 19.7 | 0.66
CC(=O)c1ccc(NC(=O)Nc2ccc3c(c2)B(O)OC3)cc1 [compound 13, 13] | 33.6 | 0.48
O=C(Nc1ccc(C(F)(F)F)cc1)Nc1ccc2c(c1)B(O)OC2 [compound 10, 10] | 60.7 | 2.59
OB1OCc2ccccc21 [compound 1, benzoxaborole 1] | > 100 | 3.79
O=C(NCc1ccco1)Nc1ccc2c(c1)B(O)OC2 [compound 8, 8] | 67.6 | 3.54
O=C(Nc1ccc(F)cc1)Nc1ccc2c(c1)B(O)OC2 [compound 9, 9] | 24 | 0.78
O=C(Nc1ccccc1)Nc1ccc2c(c1)B(O)OC2 [compound 6, phenylureido benzoxaborole 6] | 32.3 | 0.74
OB1OCc2ccc(NC(=S)Nc3ccc4ccccc4c3)cc21 [compound 16, 16] | 58.8 | 3.06
COc1ccc(NC(=S)Nc2ccc3c(c2)B(O)OC3)cc1 [compound 17, 17] | 12.6 | 0.59
O=[N+]([O-])c1ccc(NC(=S)Nc2ccc3c(c2)B(O)OC3)cc1 [compound 18, 18] | 46.8 | 0.91
Nc1ccc2c(c1)B(O)OC2 [compound 3, 6-amino benzoxaborole 3] | > 100 | 2.37
OB1OCc2ccc(NC(=S)NCCc3ccccc3)cc21 [compound 14, 14] | 72.8 | 3.2
Cc1cc(Cl)cc(CNC(=O)Nc2ccc3c(c2)B(O)OC3)c1 [compound 5, 5] | 87.6 | 4.3
OB1OCc2ccc(NC(=S)NCc3ccco3)cc21 [compound 21, 21] | 42.1 | 4.36
OB1OCc2cc(F)ccc21 [Tavaborole, reference compound] | 60.5 | 2.54
O=C(NCc1ccccc1)Nc1ccc2c(c1)B(O)OC2 [compound 4, 4] | 75.1 | 2.04
OB1OCc2ccc(NC(=S)Nc3ccccc3)cc21 [compound 23, phenylthioureido benzoxaborole 23] | 23.4 | 0.65
O=C(Nc1ccc(Cl)cc1)Nc1ccc2c(c1)B(O)OC2 [compound 7, 7] | 37.8 | 0.62
O=[N+]([O-])c1ccc2c(c1)B(O)OC2 [compound 2, 6-nitro benzoxaborole 2] | > 100 | 4.01
